The target in experiment [1] is cAMP-dependent protein kinase type II-alpha regulatory subunit (Homo sapiens, UniProt P13861).
Experiment [2] deals with Protein kinase C delta type (Homo sapiens, UniProt Q05655).
For experiment [3], the target named is Tyrosine-protein kinase CSK (Homo sapiens, UniProt P41240).
The target of experiment [4] is Bone morphogenetic protein receptor type-1B (Homo sapiens, UniProt O00238).
In experiment [5] the target is Serine/threonine-protein kinase MRCK gamma (Homo sapiens, UniProt Q6DT37).
Experiment [6] concerns the target Cyclin-dependent kinase 13 (Homo sapiens, UniProt Q14004).
Experiment [7] has as its target Receptor-interacting serine/threonine-protein kinase 2 (Homo sapiens, UniProt O43353).
The target of experiment [8] is GTP-binding nuclear protein Ran (Homo sapiens, UniProt P62826).
The target in experiment [9] is Non-receptor tyrosine-protein kinase TYK2 (Homo sapiens, UniProt P29597).
For experiment [10], the target named is T1, STE20-related kinase adapter protein alpha (Homo sapiens, UniProt Q7RTN6).
T1 sequence (Q7RTN6 whole entry): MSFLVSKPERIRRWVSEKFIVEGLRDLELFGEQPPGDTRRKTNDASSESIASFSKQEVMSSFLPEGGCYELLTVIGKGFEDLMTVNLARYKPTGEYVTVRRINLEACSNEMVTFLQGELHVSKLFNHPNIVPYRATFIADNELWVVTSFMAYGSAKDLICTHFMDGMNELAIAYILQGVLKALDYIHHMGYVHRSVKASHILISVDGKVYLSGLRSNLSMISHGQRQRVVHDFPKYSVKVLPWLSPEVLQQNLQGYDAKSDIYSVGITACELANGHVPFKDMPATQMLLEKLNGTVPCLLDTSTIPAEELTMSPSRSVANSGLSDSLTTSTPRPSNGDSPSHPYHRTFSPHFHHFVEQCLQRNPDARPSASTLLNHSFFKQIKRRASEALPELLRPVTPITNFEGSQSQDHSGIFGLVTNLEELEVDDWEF

Experiment [11] deals with Tyrosine-protein kinase Fyn (Homo sapiens, UniProt P06241).
In experiment [12] the target is cAMP-dependent protein kinase catalytic subunit beta (Homo sapiens, UniProt P22694).
In experiment [13] the target is Dual specificity mitogen-activated protein kinase kinase 2 (Homo sapiens, UniProt P36507).
Experiment [14] addresses Bone morphogenetic protein receptor type-1A (Homo sapiens, UniProt P36894).
Experiment [15] has as its target Mitogen-activated protein kinase 11 (Homo sapiens, UniProt Q15759).
Experiment [16] addresses T2, Serine/threonine-protein kinase Chk1 (Homo sapiens, UniProt O14757).
T2 sequence (O14757 whole entry): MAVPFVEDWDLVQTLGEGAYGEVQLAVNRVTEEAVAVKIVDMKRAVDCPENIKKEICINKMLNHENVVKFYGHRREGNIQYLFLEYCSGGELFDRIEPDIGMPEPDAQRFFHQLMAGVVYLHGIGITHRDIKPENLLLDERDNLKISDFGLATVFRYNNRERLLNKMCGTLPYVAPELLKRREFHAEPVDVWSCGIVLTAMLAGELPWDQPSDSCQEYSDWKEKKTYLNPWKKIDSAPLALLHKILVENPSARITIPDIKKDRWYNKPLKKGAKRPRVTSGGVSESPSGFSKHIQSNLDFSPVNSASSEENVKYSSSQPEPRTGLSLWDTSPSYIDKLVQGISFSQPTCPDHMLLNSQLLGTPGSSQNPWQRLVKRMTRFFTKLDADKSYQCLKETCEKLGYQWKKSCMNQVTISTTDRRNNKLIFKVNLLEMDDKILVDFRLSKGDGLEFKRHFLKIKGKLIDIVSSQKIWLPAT

Experiment [17] addresses Ephrin type-A receptor 7 (Homo sapiens, UniProt Q15375).
Experiment [18] deals with BMP-2-inducible protein kinase (Homo sapiens, UniProt Q9NSY1).
In experiment [19] the target is T3, Ephrin type-B receptor 2 (Homo sapiens, UniProt P29323).
T3 sequence (P29323 whole entry): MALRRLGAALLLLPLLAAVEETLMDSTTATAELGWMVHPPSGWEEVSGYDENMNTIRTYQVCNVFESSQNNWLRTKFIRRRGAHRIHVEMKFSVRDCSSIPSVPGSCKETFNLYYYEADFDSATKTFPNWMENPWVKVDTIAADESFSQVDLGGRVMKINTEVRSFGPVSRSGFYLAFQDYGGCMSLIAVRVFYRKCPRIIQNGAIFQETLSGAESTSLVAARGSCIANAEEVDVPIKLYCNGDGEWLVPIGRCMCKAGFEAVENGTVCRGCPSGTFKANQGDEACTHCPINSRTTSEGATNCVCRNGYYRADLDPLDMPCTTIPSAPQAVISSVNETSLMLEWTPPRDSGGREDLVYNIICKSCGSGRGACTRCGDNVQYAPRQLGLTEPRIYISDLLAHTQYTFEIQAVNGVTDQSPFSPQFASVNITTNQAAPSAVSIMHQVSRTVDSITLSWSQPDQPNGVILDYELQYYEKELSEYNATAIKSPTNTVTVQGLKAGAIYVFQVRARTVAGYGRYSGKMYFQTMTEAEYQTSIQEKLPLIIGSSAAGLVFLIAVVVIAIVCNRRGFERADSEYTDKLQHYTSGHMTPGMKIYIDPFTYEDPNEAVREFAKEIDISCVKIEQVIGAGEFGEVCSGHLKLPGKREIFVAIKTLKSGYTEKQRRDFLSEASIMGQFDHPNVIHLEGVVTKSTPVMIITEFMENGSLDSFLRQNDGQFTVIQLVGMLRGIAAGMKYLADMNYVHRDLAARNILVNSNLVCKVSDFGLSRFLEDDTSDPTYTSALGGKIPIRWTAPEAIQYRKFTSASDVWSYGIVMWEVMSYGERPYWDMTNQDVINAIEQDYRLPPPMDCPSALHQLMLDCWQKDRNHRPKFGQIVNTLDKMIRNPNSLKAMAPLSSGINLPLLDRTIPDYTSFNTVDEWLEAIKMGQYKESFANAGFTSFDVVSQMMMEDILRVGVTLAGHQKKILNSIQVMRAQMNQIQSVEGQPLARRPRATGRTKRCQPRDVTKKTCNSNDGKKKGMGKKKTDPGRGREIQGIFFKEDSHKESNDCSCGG

The source made the active and inactive calls. Rule as the data show it, for most assays here: actives have a measured Kd and inactives only a lower limit. Some results are limits rather than exact numbers.
Also: in the data inactive means no Kd found up to 30 µM.

Tyrosine-protein kinase Fyn, sequence (P06241 whole entry): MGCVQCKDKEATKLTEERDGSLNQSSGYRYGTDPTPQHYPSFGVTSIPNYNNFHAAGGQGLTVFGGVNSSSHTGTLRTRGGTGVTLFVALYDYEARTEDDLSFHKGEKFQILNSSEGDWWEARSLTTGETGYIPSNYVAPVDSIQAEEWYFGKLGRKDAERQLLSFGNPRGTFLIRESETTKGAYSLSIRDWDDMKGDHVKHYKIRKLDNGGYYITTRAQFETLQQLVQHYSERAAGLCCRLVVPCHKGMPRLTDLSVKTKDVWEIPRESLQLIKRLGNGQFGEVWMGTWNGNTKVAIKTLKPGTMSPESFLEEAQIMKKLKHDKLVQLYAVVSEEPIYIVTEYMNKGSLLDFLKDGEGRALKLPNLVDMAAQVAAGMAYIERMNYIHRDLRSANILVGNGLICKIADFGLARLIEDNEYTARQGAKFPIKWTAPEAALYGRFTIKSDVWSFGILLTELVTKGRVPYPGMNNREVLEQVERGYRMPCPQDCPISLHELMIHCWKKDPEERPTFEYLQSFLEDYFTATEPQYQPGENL
Mitogen-activated protein kinase 11, sequence (Q15759 whole entry): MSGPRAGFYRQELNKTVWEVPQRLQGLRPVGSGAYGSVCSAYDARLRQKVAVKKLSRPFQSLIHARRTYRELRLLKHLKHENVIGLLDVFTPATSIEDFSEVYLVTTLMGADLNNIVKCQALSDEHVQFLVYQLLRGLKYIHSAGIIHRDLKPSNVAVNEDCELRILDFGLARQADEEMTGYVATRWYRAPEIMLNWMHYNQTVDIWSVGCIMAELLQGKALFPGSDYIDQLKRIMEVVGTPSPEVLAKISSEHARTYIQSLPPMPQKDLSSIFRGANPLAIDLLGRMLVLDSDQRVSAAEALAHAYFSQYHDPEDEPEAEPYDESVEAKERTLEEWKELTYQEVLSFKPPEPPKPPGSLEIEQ
Bone morphogenetic protein receptor type-1B, sequence (O00238 whole entry): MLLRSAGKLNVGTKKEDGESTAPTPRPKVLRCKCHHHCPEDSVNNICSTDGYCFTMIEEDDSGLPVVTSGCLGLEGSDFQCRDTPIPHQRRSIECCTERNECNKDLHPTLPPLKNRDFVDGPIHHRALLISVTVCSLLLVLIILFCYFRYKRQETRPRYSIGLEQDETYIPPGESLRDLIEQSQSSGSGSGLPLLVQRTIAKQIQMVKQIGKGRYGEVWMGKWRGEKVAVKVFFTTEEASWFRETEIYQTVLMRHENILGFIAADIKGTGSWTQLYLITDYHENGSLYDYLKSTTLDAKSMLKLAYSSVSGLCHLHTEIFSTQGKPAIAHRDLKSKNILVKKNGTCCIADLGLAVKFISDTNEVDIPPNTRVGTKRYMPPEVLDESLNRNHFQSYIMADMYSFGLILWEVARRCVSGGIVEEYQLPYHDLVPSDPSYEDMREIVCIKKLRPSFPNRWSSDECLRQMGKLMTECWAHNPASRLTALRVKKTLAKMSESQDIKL
Receptor-interacting serine/threonine-protein kinase 2, sequence (O43353 whole entry): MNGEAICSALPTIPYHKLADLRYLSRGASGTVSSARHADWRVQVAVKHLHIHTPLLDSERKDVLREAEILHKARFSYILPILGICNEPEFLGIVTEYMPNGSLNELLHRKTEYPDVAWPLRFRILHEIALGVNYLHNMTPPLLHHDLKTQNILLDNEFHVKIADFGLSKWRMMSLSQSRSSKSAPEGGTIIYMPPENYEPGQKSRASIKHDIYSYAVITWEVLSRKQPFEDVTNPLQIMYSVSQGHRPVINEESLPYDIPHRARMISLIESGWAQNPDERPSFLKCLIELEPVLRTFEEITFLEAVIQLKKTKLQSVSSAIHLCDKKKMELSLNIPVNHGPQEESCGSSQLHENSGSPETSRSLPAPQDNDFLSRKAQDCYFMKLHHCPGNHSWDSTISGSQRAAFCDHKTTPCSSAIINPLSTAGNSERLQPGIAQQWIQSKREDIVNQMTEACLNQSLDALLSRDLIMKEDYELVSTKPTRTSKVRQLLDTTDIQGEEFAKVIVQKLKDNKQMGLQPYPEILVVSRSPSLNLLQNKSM
BMP-2-inducible protein kinase, sequence (Q9NSY1 whole entry): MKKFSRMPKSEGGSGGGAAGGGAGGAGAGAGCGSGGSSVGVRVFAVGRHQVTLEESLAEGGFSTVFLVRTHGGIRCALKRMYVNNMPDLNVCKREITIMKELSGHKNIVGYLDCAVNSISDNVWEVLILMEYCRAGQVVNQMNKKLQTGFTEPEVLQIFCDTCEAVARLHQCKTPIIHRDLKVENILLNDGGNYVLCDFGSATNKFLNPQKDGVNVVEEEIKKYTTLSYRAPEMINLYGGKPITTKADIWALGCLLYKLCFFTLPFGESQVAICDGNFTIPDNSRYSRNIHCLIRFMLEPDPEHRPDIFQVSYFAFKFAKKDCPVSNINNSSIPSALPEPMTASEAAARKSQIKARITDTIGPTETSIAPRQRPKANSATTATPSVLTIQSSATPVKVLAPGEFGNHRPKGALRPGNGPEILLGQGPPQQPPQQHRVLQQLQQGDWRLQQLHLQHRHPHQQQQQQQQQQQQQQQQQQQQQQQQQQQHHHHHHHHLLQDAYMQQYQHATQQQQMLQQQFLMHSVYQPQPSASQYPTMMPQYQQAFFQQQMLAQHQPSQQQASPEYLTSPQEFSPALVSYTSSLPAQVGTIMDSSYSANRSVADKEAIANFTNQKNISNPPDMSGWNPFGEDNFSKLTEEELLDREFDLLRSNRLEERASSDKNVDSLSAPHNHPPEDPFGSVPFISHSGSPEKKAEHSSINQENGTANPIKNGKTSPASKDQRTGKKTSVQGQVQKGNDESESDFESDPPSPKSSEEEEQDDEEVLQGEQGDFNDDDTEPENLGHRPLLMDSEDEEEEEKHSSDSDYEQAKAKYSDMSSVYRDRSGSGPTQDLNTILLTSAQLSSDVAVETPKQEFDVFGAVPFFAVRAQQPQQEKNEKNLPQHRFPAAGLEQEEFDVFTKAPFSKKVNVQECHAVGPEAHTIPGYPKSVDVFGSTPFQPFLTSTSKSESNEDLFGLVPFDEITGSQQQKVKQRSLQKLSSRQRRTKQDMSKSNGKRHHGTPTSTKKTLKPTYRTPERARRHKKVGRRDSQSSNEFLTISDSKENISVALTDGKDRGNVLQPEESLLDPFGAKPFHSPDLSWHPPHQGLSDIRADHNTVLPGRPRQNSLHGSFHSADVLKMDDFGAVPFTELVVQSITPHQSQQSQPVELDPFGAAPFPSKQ
cAMP-dependent protein kinase type II-alpha regulatory subunit, sequence (P13861 whole entry): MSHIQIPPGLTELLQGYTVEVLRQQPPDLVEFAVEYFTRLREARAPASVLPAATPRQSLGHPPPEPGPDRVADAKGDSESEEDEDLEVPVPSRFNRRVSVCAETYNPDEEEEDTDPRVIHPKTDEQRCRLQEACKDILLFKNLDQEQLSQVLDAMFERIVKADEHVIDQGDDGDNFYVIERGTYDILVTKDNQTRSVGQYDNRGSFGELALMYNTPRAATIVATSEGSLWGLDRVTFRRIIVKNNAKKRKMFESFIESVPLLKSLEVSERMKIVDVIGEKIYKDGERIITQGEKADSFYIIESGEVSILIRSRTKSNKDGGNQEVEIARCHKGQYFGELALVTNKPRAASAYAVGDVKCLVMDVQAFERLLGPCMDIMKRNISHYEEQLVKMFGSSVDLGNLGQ
Serine/threonine-protein kinase MRCK gamma, sequence (Q6DT37 whole entry): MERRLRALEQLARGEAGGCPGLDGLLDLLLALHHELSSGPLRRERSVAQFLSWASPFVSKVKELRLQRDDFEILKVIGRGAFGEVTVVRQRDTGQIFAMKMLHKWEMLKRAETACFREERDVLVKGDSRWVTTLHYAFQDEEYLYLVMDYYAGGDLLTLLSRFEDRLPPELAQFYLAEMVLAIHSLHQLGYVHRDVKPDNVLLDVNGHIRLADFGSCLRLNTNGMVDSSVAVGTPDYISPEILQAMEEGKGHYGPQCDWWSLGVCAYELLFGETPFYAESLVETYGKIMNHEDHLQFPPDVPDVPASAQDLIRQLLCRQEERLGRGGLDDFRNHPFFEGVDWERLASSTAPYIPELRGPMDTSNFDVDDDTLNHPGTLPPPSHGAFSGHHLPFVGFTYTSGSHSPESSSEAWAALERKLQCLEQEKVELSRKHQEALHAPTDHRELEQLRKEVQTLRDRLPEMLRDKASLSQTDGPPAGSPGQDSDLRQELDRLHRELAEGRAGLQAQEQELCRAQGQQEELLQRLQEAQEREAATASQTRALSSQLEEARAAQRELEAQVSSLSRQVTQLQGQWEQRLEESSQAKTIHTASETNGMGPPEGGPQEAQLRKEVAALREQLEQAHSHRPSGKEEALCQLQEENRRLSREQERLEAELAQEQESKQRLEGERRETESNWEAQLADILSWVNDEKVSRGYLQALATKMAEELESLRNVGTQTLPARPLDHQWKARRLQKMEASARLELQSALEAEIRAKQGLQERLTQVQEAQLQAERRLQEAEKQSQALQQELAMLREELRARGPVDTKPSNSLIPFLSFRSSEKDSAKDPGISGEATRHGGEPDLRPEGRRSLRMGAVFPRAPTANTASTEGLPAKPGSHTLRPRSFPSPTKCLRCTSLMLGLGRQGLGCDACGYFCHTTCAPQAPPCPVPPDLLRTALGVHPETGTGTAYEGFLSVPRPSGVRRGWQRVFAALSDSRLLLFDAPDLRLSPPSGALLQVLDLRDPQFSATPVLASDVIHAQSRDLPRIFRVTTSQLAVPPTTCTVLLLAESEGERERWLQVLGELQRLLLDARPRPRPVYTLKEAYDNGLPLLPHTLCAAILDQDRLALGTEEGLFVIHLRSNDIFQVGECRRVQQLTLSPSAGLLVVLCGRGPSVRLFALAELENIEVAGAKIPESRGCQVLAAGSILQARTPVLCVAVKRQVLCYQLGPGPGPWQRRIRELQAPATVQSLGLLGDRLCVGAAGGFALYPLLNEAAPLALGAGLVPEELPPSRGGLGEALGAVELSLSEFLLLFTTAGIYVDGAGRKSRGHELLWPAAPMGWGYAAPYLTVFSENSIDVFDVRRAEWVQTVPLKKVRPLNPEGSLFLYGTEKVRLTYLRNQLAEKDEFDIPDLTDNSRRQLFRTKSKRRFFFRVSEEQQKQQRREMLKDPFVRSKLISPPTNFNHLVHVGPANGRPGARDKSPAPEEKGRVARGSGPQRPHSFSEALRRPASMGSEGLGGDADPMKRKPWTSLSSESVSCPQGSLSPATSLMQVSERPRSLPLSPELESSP

In the case of `Cc1cc(-c2cc(OC(=O)c3ccccc3)ccc2Cl)cc2nnc(Nc3ccc(OCCN4CCCC4)cc3)nc12` [TG100-801], the Kd in [1], in [2], in [3], in experiment [4], in [5] and in experiment [6] was > 30 µM (inactive) throughout. The Kd – broadly, the concentration at which binding is half-saturated – in experiment [7] is 0.192 µM (active); in experiment [8], > 30 µM (inactive); in experiment [9], > 30 µM (inactive); in [10] it was > 30 µM (inactive); in experiment [11] it was > 30 µM (inactive); in [12] it was > 30 µM (inactive). Moreover, the Kd in experiment [13], in experiment [14], in [15], in [16], in [17] and in experiment [18] was > 30 µM (inactive) each time. Also, the Kd in experiment [19] is 1.3 µM (active).
Consider `O=C(Nc1ccc(OC(F)(F)F)cc1)c1sccc1NCc1ccnc2ccccc12` [OSI-930], for which the Kd in experiment [1], in experiment [2], in experiment [3], in experiment [4], in experiment [5] and in [6] was > 30 µM (inactive) in each case. The Kd in [7], in experiment [8], in experiment [9], in [10], in [11] and in experiment [12] was > 30 µM (inactive) in each case. For the same molecule, the Kd in experiment [13], in experiment [14], in experiment [15], in experiment [16], in experiment [17] and in [18] was > 30 µM (inactive) throughout. In experiment [19], the Kd is > 30 µM (inactive).
On to `CNC(=O)c1ccc(Nc2ncc(C(F)(F)F)c(NCc3nccnc3N(C)S(C)(=O)=O)n2)cc1` [DEFACTINIB], for which the Kd in [1] is > 30 µM (inactive); in experiment [2], > 30 µM (inactive); in [3], > 30 µM (inactive); in experiment [4], > 30 µM (inactive); in experiment [5], > 30 µM (inactive); in experiment [6], 3.11 µM (active). Also, the Kd in [7], in experiment [8], in experiment [9], in experiment [10], in experiment [11] and in experiment [12] was > 30 µM (inactive) throughout. In addition, the Kd in experiment [13], in experiment [14], in experiment [15], in [16], in experiment [17] and in experiment [18] was > 30 µM (inactive) each time. Moreover, the Kd in [19] is > 30 µM (inactive).
Take `Cc1cc(C(=O)Nc2cc(Oc3ccc4nc(NC(=O)C5CC5)cn4n3)ccc2C)n(C)n1` [TAK-593]: the Kd in experiment [1], in experiment [2], in experiment [3], in [4], in experiment [5] and in experiment [6] was > 30 µM (inactive) in each case. The Kd in experiment [7], in experiment [8], in experiment [9], in experiment [10], in experiment [11] and in experiment [12] was > 30 µM (inactive) in each case. Moreover, the Kd was > 30 µM (inactive) in experiment [13]; > 30 µM (inactive) in experiment [14]; > 30 µM (inactive) in experiment [15]; > 30 µM (inactive) in experiment [16]; > 30 µM (inactive) in experiment [17]; 10.9 µM (active) in experiment [18]. In experiment [19], the Kd was > 30 µM (inactive).
On to `O=C(O)c1ccc2c(c1)nc(Nc1cccc(Cl)c1)c1ccncc12` [SILMITASERTIB], for which the Kd in experiment [1], in [2], in experiment [3], in experiment [4], in experiment [5] and in [6] was > 30 µM (inactive) in each case. The Kd in experiment [7] is > 30 µM (inactive); in [8] it was > 30 µM (inactive); in experiment [9] it was 2.38 µM (active); in [10] it was > 30 µM (inactive); in experiment [11], > 30 µM (inactive); in experiment [12] it was > 30 µM (inactive). Further, the Kd in experiment [13] was > 30 µM (inactive); in experiment [14], > 30 µM (inactive); in [15], > 30 µM (inactive); in experiment [16] it was 6.17 µM (active); in [17], > 30 µM (inactive); in experiment [18] it was > 30 µM (inactive). Moreover, in [19], the Kd was > 30 µM (inactive).
For `c1cc(OCCN2CCCCC2)cc(-c2n[nH]c3ccc(-c4nc[nH]n4)cc23)c1` [CC-401], the Kd in [1], in [2], in experiment [3], in [4], in [5] and in experiment [6] was > 30 µM (inactive) throughout. For the same molecule, the Kd in experiment [7], in [8], in experiment [9], in experiment [10], in experiment [11] and in experiment [12] was > 30 µM (inactive) throughout. Further, the Kd was > 30 µM (inactive) in experiment [13]; > 30 µM (inactive) in experiment [14]; > 30 µM (inactive) in [15]; > 30 µM (inactive) in [16]; > 30 µM (inactive) in experiment [17]; 1.47 µM (active) in experiment [18]. The Kd in [19] is > 30 µM (inactive).

(Values after ChEMBL document CHEMBL3991601, “The target landscape of clinical kinase drugs” (Science, 2017).)
